Measurements taken from patent US20040071762A1, “Diagnostic test for schizophrenia, using niacin” (Scotia Holdings PLC, priority 1996, published 2004).
Read-outs that look alike come from different tables or passages of the source.

Experiments:
[1] = test system: skin; settings: 100-300 mg given orally, cited from earlier work
[2] = test system: skin; assay: Topical niacin skin patch test, redness (flushing) scored 0-3; assay type: in vivo, human; settings: for Percentage responding with absent [0] reddening of the skin / Percentage responding with marked [3] reddening of the skin / Percentage responding with mild [1] reddening of the skin / Percentage responding with moderate [2] reddening of the skin: 5 minutes
Text: The test involves the topical application of niacin solutions, preferably in a carrier such as gauze, cotton, wax or appropriate fibre or absorbent material, to the skin of any part of the body, but conveniently the forearm or upper arm. A range of solutions may be used from 0.00001M to 1 molar. A single concentration may be chosen and used but desirably use is made of a range of steps varying from two to twenty. We have found it convenient is to use a range of four solutions of 0.1, 0.01, 0.001 and 0.0001M, e.g. 0.05 ml of each, but other concentrations within the range and other numbers of steps can be used as found appropriate, both in diagnosis and in monitoring as discussed above. […] The wells or depressions may be sealed by another plastic or other strip which isolates them from the atmosphere and which can be removed immediately prior to testing. The strip with the open wells can then be applied to the skin surface with light pressure and removed after an appropriate time which may be e.g. 0.5 minutes up to 10 or 15 minutes but preferably 3 to 6 minutes.
Both of these effects are due to vasodilatation of the small blood vessels of the skin. The redness may be scored in relation to the adjacent unaffected skin on an appropriate scale which can be either “present” or “absent”, or can be semi-quantitative, such as mild, moderate or marked, or can be made fully quantitative by use of a spectrophotometer or other appropriate instrument e.g. a blood flow meter. The oedema can likewise be scored as present or absent or can be scored semi-quantitatively or quantitatively.
We have also used a scoring system in which the degree of redness under each patch was scored as 0=no change, 1=mild redness, 2=moderate redness and 3=marked redness. When the test is used commercially, sample colour charts may show how the test can be used with individuals of varying skin colour. With particularly dark-skinned individuals, oedema or a measurement of skin surface temperature or heat loss may be required to give the best results.

[3] = normal controls (n=22), topical niacin 0.000. M
[4] = normal controls (n=22), topical niacin 0.001 M
[5] = normal controls (n=22), topical niacin 0.01 M
[6] = normal controls (n=22), topical niacin 0.1 M
[7] = schizophrenics (n=38), topical niacin 0.000. M
[8] = schizophrenics (n=38), topical niacin 0.001 M
[9] = schizophrenics (n=38), topical niacin 0.01 M
[10] = schizophrenics (n=38), topical niacin 0.1 M

SMILES: O=C(O)c1cccnc1 [Niacin, nicotinic acid]
- Flushing response to oral niacin ([1]; a substantial proportion of schizophrenics): fail to flush
- Flushing response to oral niacin ([1]; most normal individuals): flush markedly
- Response to topical niacin test in depressives ([2]; depressives, expected by analogy with oral niacin): the same as for normal individuals
- Percentage responding with absent [0] reddening of the skin [2, 3]: 35.3%
- Percentage responding with marked [3] reddening of the skin [2, 3]: 17.6%
- Percentage responding with mild [1] reddening of the skin [2, 3]: 29.4%
- Percentage responding with moderate [2] reddening of the skin [2, 3]: 17.6%
- Percentage responding with absent [0] reddening of the skin [2, 4]: 31.8%
- Percentage responding with marked [3] reddening of the skin [2, 4]: 18.2%
- Percentage responding with mild [1] reddening of the skin [2, 4]: 9.1%
- Percentage responding with moderate [2] reddening of the skin [2, 4]: 40.9%
- Percentage responding with absent [0] reddening of the skin [2, 5]: 9.1%
- Percentage responding with marked [3] reddening of the skin [2, 5]: 31.8%
- Percentage responding with mild [1] reddening of the skin [2, 5]: 13.6%
- Percentage responding with moderate [2] reddening of the skin [2, 5]: 45.5%
- Percentage responding with absent [0] reddening of the skin [2, 6]: 4.5%
- Percentage responding with marked [3] reddening of the skin [2, 6]: 59.1%
- Percentage responding with mild [1] reddening of the skin [2, 6]: 9.1%
- Percentage responding with moderate [2] reddening of the skin [2, 6]: 27.3%
- Percentage responding with absent [0] reddening of the skin [2, 7]: 88.2%
- Percentage responding with marked [3] reddening of the skin [2, 7]: 0%
- Percentage responding with mild [1] reddening of the skin [2, 7]: 8.8%
- Percentage responding with moderate [2] reddening of the skin [2, 7]: 2.9%
- Percentage responding with absent [0] reddening of the skin [2, 8]: 67.6%
- Percentage responding with marked [3] reddening of the skin [2, 8]: 0%
- Percentage responding with mild [1] reddening of the skin [2, 8]: 29.4%
- Percentage responding with moderate [2] reddening of the skin [2, 8]: 2.9%
- Percentage responding with absent [0] reddening of the skin [2, 9]: 41.2%
- Percentage responding with marked [3] reddening of the skin [2, 9]: 0%
- Percentage responding with mild [1] reddening of the skin [2, 9]: 41.2%
- Percentage responding with moderate [2] reddening of the skin [2, 9]: 17.6%
- Percentage responding with absent [0] reddening of the skin [2, 10]: 13.5%
- Percentage responding with marked [3] reddening of the skin [2, 10]: 5.4%
- Percentage responding with mild [1] reddening of the skin [2, 10]: 37.8%
- Percentage responding with moderate [2] reddening of the skin [2, 10]: 43.2%

SMILES: NC(=O)c1cccnc1 [Nicotinamide]
- Flushing reaction in normal individuals ([2]; form passing the skin, suitability for the topical test): does not elicit the reaction
